Experimental data taken from patent publication US20060052440A1, “Medicinal composition for treating sudden deafness” (Nichimo Co., Ltd., priority 2002, published 2006).

Test: SOD-like activity (superoxide scavenging activity) by ESR spin trap method, hypoxanthine-xanthine oxidase system with DMPO
Assay type: biochemical
Settings: for SOD-like activity after emulsification: after emulsification (Tween-80 or other emulsifier), figures in parentheses; for SOD-like activity (superoxide scavenging activity): not emulsified, extracted with untreated 0.1 M phosphate buffer
Excerpt: This superoxide scavenging activity will be described in further detail below. Superoxides (O2') are a type of active oxygen that are produced by neutrophils and macrophages and protect the body from impurities, but also are the cause of pulmonary emphysema, cataracts, arteriosclerosis, psoriasis, and the like. These superoxides are, therefore, a double-edged sword. The enzyme activity of superoxide dismutase (SOD) and superoxide scavenging activity (SOSA or SOD-like activity) are examples of the ability of food products to eliminate O2'. The former is an enzyme and is therefore broken down by digestive enzymes and goes virtually unabsorbed in vivo when taken orally. Consequently, the latter is promising for food products. […] ESR is a method for measuring SOD-like activity and assessing the ability of […] to scavenge O2'. […] This method is also called the spin trap method. In accordance with preparation by this spin trap method, only the water-soluble components are extracted in order to extract the component with SOD-like activity contained in a sample with 0.1 M phosphate buffer. […] Consequently, measuring superoxide […] activity with the isoflavone pre-emulsified in a small amount of oil or fat was contemplated.

Structure (SMILES) | SOD-like activity after emulsification | SOD-like activity (superoxide scavenging activity)
O=c1c(-c2ccc(O)cc2)coc2cc(O)cc(O)c12 [Genistein, genistein] | (300 or units/g | 300 or less units/g
O=c1c(-c2ccc(O)cc2)coc2cc(O)ccc12 [Daidzein, daidzein] | (300 or units/g | 300 or less units/g
